# Laboratory results from patent US20260306633A1, “A COMBINATION THERAPY FOR CANCER TREATMENT” (Purdue Research Foundation, priority 2023, published 2026).
# Like-named read-outs stand apart in the source and are kept apart here.
# How the values were obtained:
# TNBC BT-549 cells = experiment: Cell survival / cell inhibition (MTT cell cytotoxicity assay) after 24 h treatment with photosensitizer and/or chemotherapeutic agent, dark or light-irradiated; assay type: cell-based, human; details: for viability at 1 µM: high end of 100-1000 nM; for viability at 0.01 µM: low end of 10-100 nM (so in the source)
# Experimental: Human mammary epithelial carcinoma cell lines purchased from the American Type Culture Collection BT-549 (ATCC HTB-122) were cultured according to ATCC protocol. BT-549 cells were grown in RPMI 1640 containing 0.023 IU/mL insulin and supplemented with 10% fetal bovine serum (FBS). Cells were grown to 80-90% confluence in 75-cm^2 culture flasks (Corning) for 4-5 days in a humidified incubator (Fisher Scientific Isotemp) with 5% CO2 at 37° C. During the incubation period, growth media was changed once with fresh pre-warmed media (pH 7.2). To harvest the cells, old growth media was aspirated out, and 3 mL 0.25% trypsin solution (Thermo Sci Hyclone) were added. The cells were incubated for 5 minutes, and the cell pellet after centrifugation was resuspended in 3 mL media, broken up gently, then 1 mL of suspended cells was transferred into a new T75 cell culture flask containing pre-warmed media (20 mL) for further culturing.
# (§1) Cells were grown to confluence in a 96-well plate (9×10^3 cells/well) and co-treated for 24 hours with synthesized photosensitizers (PSs) and chemotherapeutic agents of varying concentrations ranging from 5 nM to 50 μM) in growth media from a stock solution of 10 mM in DMSO (dimethyl sulfoxide, Fisher). After 24-hour treatment, old growth media containing the PSs or compounds were aspirated out and replaced with fresh media. Plates were then positioned below a non-coherent LumaCare LC-122 650 nm light source for 1 minute at an energy fluence rate of 0.96 J/cm^2 and a power of 16 mW/cm^2 (measured using a Newport optical power meter Model 840). Unirradiated cells served as control samples. The following day, cells were washed with pre-warmed PBS, and 11MTT (3-[4,5-dimethyl-thiazol-2-yl]-2.5-diphenyltetrazolium bromide, Sigma, 0.3 mg/mL) in PBS was added to each well. Samples were allowed to incubate for additional 2 hours, after which dark blue crystals formed. DMSO was added to each well and plates were shaken at room temperature for 1 hour to dissolve the purplish-blue formazan crystals. Absorbance values at 570 nm were measured on a microplate reader (BioRad 550). Cell survival was calculated based on the absorbance of the untreated cells alone (as control) and were directly proportional to the number of viable cells in culture. Results were reported as the mean±SD of triplicate measurements.
# The unmetallated PS and the indium complexes were used.
# Light dose corresponds to an energy fluence rate of 0.96 J/cm^2 used.
# Power of 16 mW/cm^2 used.
# Cell inhibition in TNBC cells is based on the cell survival (MTT) assay of the binary therapy, blending the effect of PDT and chemotherapeutic agents. […] MePheo serves as a control compound. TNBC cells were then exposed to light after binary treatment for 24 hours.
# human TNBC BT-549 cells = experiment: Fluorescence microscopy (Hoechst 33258) of cell morphology / cell death pathway; assay type: cell-based; details: fluorouracil 25 μM, dark (FIG. 18U)
# Experimental: Grayscale images of cells stained with Hoechst 33258. Morphology of (A) untreated unirradiated cells, sham control; (B) illuminated cells; (C-E) cells treated with: PSs (InCLA, CBTN, and CPA) and paclitaxel in the dark; (F-H) PSs, followed by 1 minute light exposure; (I) paclitaxel unirradiated; (J-L) PSs and paclitaxel in the dark; (M-O) PSs co-treated with paclitaxel, then light-exposed; (P-Q) PSs co-treated with doxorubicin, then irradiated; (R) PSs and cisplatin, dark; (S-T) PSs and cisplatin, irradiated; (U) fluorouracil, dark; (V) InCLA with fluorouracil in the dark; (W) light-exposed and, (X-Y) PSs with methotrexate with light. Inserts indicate enlarged view. […] Light dose in 1 minute=0.96 J cm^−2; in 30 seconds=0.48 J cm^−2. Concentrations: PSs=50 nM; paclitaxel=50 nM; doxorubicin=500 nM; cisplatin=25 μM; fluororuracil=25 μM; and, methotrexate=500 nM.
# Cells (1 mL aliquots) obtained from a diluted cell suspension were seeded into each well (1.7 cm^2, 8×10^3 cells/well) of a 4-well culture slide (BD Biosciences) and grown to confluence in 5% CO2 at 37° C. for 3-4 days for attachment to the substratum. After aspirating the old growth media, 1 mL of the photosensitizer and chemotherapeutic agents (with appropriate concentrations) in fresh pre-warmed media at 37° C. was added to each well. After compound treatment for 24 hours, cells were washed twice with 1 mL fresh growth media, and then irradiated with light using LumaCare LC-122 as described above. Cells were stained in the dark with Hoechst 33258 (Molecular Probes) in pre-warmed media for 10 minutes at 37° C., washed twice with filtered PBS, then fixed with filtered paraformaldehyde for 15 minutes in the incubator. After thorough liquid aspiration, the wells were removed and allowed to air dry in the dark for 1 hour. Slides were protected with coverslips, whose edges were sealed using clear fast-drying nail polish and allowed to dry at room temperature in the dark for 30 minutes. Images were recorded using fluorescence microscopy (DAPI for Hoechst 350-390 nm excitation and 460-490 nm emission filters) using an upright fluorescence microscope with Retiga imaging 2000R (Nikon Optiphot-2, 20× and 40×) and an image processing Nikon NIS-Elements V4.0 Qimaging software.
# To determine the preferred cell death pathway for the binary chemophotodynamic therapy, tracking the hallmarks of apoptosis or necrosis was accomplished using a nuclear stain to monitor chromatin condensation and cellular contraction. TNBC cells are spindle-shaped and nearly round with intact cytoplasm, diffused chromatin, distinct cellular membrane, and large oval nuclei staining dark blue with the nuclear stain (FIG. 18A-B).
# TNBC cells [1] = experiment: Combination index (CI) of binary therapy, Chou-Talalay method, CompuSyn software; assay type: cell-based, human
# Experimental: (§2) The calculated CI values are based on 50 nM concentration for the PSs, 50 nM paclitaxel, 500 nM doxorubicin, 25 μM cisplatin, 25 μM fluorouracil, and 500 nM methotrexate.
# as §1
# The combination index (CI) for the binary treatment of TNBC cells with a PS and a chemotherapeutic drug was calculated based on the Chou-Talalay method using CompuSyn software. […] The unified dynamics algorithm uses a minimum of dose-data points to fit the general MAL theory.
# as §2
# TNBC cells [2] = experiment: as above; assay type: cell-based, human; details: PS 50 nM + methotrexate 500 μM (footnote 500 nM)
smiles,measurement,setting,value
"CN(Cc1cnc2nc(N)nc(N)c2n1)c1ccc(C(=O)N[C@@H](CCC(=O)O)C(=O)O)cc1 [methotrexate, reference compound]",viability at 0.5 µM,"TNBC BT-549 cells; Homo sapiens, BT-549, 24 h, methotrexate 500 nM, dark, read-out: cell survival, drug only",78%
same,viability at 1 µM,"TNBC BT-549 cells; Homo sapiens, BT-549, 24 h, methotrexate, dark, read-out: cell survival, drug only (end of decrease)",66%
same,viability at 0.1 µM,"TNBC BT-549 cells; Homo sapiens, BT-549, 24 h, methotrexate, dark, low end of 100-1000 nM, read-out: cell survival, drug only (start of decrease)",87%
same,viability at 1 µM,"TNBC BT-549 cells; Homo sapiens, BT-549, 24 h, methotrexate, light, read-out: cell survival, drug only (end of decrease)",66%
same,viability at 0.1 µM,"TNBC BT-549 cells; Homo sapiens, BT-549, 24 h, methotrexate, light, low end of 100-1000 nM, read-out: cell survival, drug only (start of decrease)",93%
same,"average increase in cell survival upon light irradiation compared to unirradiated cells, drug only","TNBC BT-549 cells; drug alone, light vs dark",6%
"O=c1[nH]cc(F)c(=O)[nH]1 [fluorouracil, 5-Fluorouracil, reference compound]",viability at 25 µM,"TNBC BT-549 cells; Homo sapiens, BT-549, 24 h, fluorouracil 25 μM, dark, read-out: cell survival, drug only",64%
same,viability at 0.1 µM,"TNBC BT-549 cells; Homo sapiens, BT-549, 24 h, fluorouracil, dark, high end of 10-100 nM (so in the source), read-out: cell survival, drug only (end of decrease)",65%
same,viability at 0.01 µM,"TNBC BT-549 cells; Homo sapiens, BT-549, 24 h, fluorouracil, dark, read-out: cell survival, drug only (start of decrease)",87%
same,viability at 0.1 µM,"TNBC BT-549 cells; Homo sapiens, BT-549, 24 h, fluorouracil, light, high end of 10-100 nM (so in the source), read-out: cell survival, drug only (end of decrease)",68%
same,viability at 0.01 µM,"TNBC BT-549 cells; Homo sapiens, BT-549, 24 h, fluorouracil, light, read-out: cell survival, drug only (start of decrease)",85%
same,"average decrease in cell survival upon light irradiation compared to unirradiated cells, drug only","TNBC BT-549 cells; drug alone, light vs dark",9%
same,"cell morphology, fluorouracil, dark",human TNBC BT-549 cells,did not affect the cellular morphology
"C=Cc1c(C)c2cc3nc(c4c5[nH]c(cc6nc(cc1[nH]2)C(C)=C6CC)c(C)c5C(=O)[C@@H]4C(=O)OC)[C@@H](CCC(=O)OC)[C@@H]3C [MePheo, methyl pheophorbide, reference compound]","cell inhibition (%), combination with cisplatin","TNBC BT-549 cells; PS 100 nM + cisplatin 25 μM, 24 h, light 0.96 J cm−2",39%
same,effect of added cisplatin compared to cisplatin-treated cell viability,"TNBC BT-549 cells; PS 100 nM + cisplatin 25 μM, light",reduced cell survival
same,"cell inhibition (%), combination with doxorubicin","TNBC BT-549 cells; PS 100 nM + doxorubicin 500 nM, 24 h, light 0.96 J cm−2",36%
same,"cell survival, co-treatment with fluorouracil in the dark","TNBC BT-549 cells; PS 100 nM + fluorouracil 25 μM, 24 h, dark",61%
same,"cell inhibition (%), combination with fluorouracil","TNBC BT-549 cells; PS 100 nM + fluorouracil 25 μM, 24 h, light 0.96 J cm−2",34%
same,"cell inhibition (%), combination with methotrexate","TNBC BT-549 cells; PS 100 nM + methotrexate 500 nM, 24 h, light 0.96 J cm−2",40%
same,"cell survival, co-treatment with paclitaxel in the dark","TNBC BT-549 cells; PS 100 nM + paclitaxel 50 nM, 24 h, dark",46%
same,"cell inhibition (%), combination with paclitaxel","TNBC BT-549 cells; PS 100 nM + paclitaxel 50 nM, 24 h, light 0.96 J cm−2",55%
same,"cytotoxicity in the absence of light, PS alone","TNBC BT-549 cells; PS 500 nM, dark",No cytotoxicity
same,cell viability reduction (difference) vs PS alone,"TNBC BT-549 cells; PS at lower concentration (CPA: 50 nM) + methotrexate 500 nM, light",10%
same,combination index (CI) with cisplatin,TNBC cells [1]; PS 50 nM + cisplatin 25 μM,6.10
same,synergism vs additive vs antagonism effect with cisplatin,TNBC cells [1]; PS 50 nM + cisplatin 25 μM,"(SA) (SA (3.3-10), strong antagonism)"
same,combination index (CI) with doxorubicin,TNBC cells [1]; PS 50 nM + doxorubicin 500 nM,6.37
same,synergism vs additive vs antagonism effect with doxorubicin,TNBC cells [1]; PS 50 nM + doxorubicin 500 nM,"(SA) (SA (3.3-10), strong antagonism)"
same,combination index (CI) with fluorouracil,TNBC cells [1]; PS 50 nM + fluorouracil 25 μM,17.96
same,synergism vs additive vs antagonism effect with fluorouracil,TNBC cells [1]; PS 50 nM + fluorouracil 25 μM,"(VSA) (VSA (>10), very strong antagonism)"
same,combination index (CI) with paclitaxel,TNBC cells [1]; PS 50 nM + paclitaxel 50 nM,13.27
same,synergism vs additive vs antagonism effect with paclitaxel,TNBC cells [1]; PS 50 nM + paclitaxel 50 nM,"(VSA) (VSA (>10), very strong antagonism)"
same,combination index (CI) with methotrexate,TNBC cells [2],7.79
same,synergism vs additive vs antagonism effect with methotrexate,TNBC cells [2],"(SA) (SA (3.3-10), strong antagonism)"
